Where “and” joins values, the source holds several entries; their conditions need not be identical. Equal values may be shown once. Inconclusive results and toxic doses are left out. Rule as the data show it: active = T/C of 150% or more; inactive = T/C below 125%.
System: L1210 leukemia ip in BDF1 mice, survival T/C
Assay: NCI In Vivo Anticancer Drug Screen. Data for tumor model L1210 Leukemia (intraperitoneal) in B6D2F1 (BDF1) mice
Conditions: endpoint: mean survival time, higher = longer survival
In short: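 Mice bearing the transplanted tumor received compound or vehicle. Survival of the treated group was divided by that of the vehicle-treated control group to give the ratio.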

[1] = dose: 100.0 mg/kg/injection, schedule: Q04DX003 (ip), vehicle: saline
[2] = dose: 200.0 mg/kg/injection, schedule: Q04DX003 (ip), vehicle: saline
[3] = dose: 400.0 mg/kg/injection, schedule: Q04DX003 (ip), vehicle: saline
[4] = dose: 100.0 mg/kg/injection, schedule: Q04DX003 (ip), vehicle: Klucel (hydroxypropylcellulose) (HPC)
[5] = dose: 200.0 mg/kg/injection, schedule: Q04DX003 (ip), vehicle: Klucel (hydroxypropylcellulose) (HPC)
[6] = dose: 400.0 mg/kg/injection, schedule: Q04DX003 (ip), vehicle: Klucel (hydroxypropylcellulose) (HPC)
[7] = dose: 100.0 mg/kg/injection, schedule: Q01DX001 (ip), vehicle: Klucel (hydroxypropylcellulose) (HPC)
[8] = dose: 200.0 mg/kg/injection, schedule: Q01DX001 (ip), vehicle: Klucel (hydroxypropylcellulose) (HPC)
[9] = dose: 400.0 mg/kg/injection, schedule: Q01DX001 (ip), vehicle: Klucel (hydroxypropylcellulose) (HPC)
[10] = dose: 100.0 mg/kg/injection, schedule: Q01DX001 (ip), vehicle: saline
[11] = dose: 200.0 mg/kg/injection, schedule: Q01DX001 (ip), vehicle: saline
[12] = dose: 400.0 mg/kg/injection, schedule: Q01DX001 (ip), vehicle: saline
[13] = dose: 75.0 mg/kg/injection, schedule: Q01DX001 (ip), vehicle: other
[14] = dose: 150.0 mg/kg/injection, schedule: Q01DX001 (ip), vehicle: other
[15] = dose: 100.0 mg/kg/injection, schedule: Q04DX002 (ip), vehicle: Klucel (hydroxypropylcellulose) (HPC)

Measured: T/C

CC(=O)Nc1c(O)c(Cl)c(Cl)c(Cl)c1Cl
inactive: [1] 105 % of control | [2] 101 % of control | [3] 94 % of control

O=C(CCN1CC1)Oc1ccc(Cl)cc1
inactive: dose: 100.0 mg/kg/injection, schedule: Q01DX001 (ip), vehicle: saline with Tween-80 97 % of control | dose: 200.0 mg/kg/injection, schedule: Q01DX001 (ip), vehicle: saline with Tween-80 95 % of control | dose: 400.0 mg/kg/injection, schedule: Q01DX001 (ip), vehicle: saline with Tween-80 95 % of control

S=c1nc[nH]c2c1N=CNN2
inactive: dose: 5.0 mg/kg/injection, schedule: Q01DX001 (ip), vehicle: carboxymethylcellulose (CMC) 115 % of control | dose: 10.0 mg/kg/injection, schedule: Q01DX001 (ip), vehicle: carboxymethylcellulose (CMC) 90 % of control | dose: 20.0 mg/kg/injection, schedule: Q01DX001 (ip), vehicle: carboxymethylcellulose (CMC) 101 % of control | dose: 40.0 mg/kg/injection, schedule: Q01DX001 (ip), vehicle: carboxymethylcellulose (CMC) 96 % of control

C1CCC(P(C2CCCCC2)C2CCCCC2)CC1
inactive: [4] 93 % of control | [5] 93 % of control | [6] 89 % of control

O=C(NC1CCCCC1)c1ccc([N+](=O)[O-])cc1
inactive: [7] 104 % of control | [8] 101 % of control | [9] 101 % of control

N=C(N)c1cccc(OCCCc2ccccc2)c1
inactive: [7] 100 % of control | [8] 97 % of control | [9] 100 % of control

CN(C)c1cc(O)ccc1[N+](=O)[O-]
inactive: [1] 103 % of control | [2] 95 % of control | [3] 100 % of control

Cc1ccc(NC(=O)COc2ccc(Cl)cc2Cl)c(C)c1
inactive: dose: 100.0 mg/kg/injection, schedule: Q01DX009 (ip), vehicle: saline with Tween-80 104 % of control | dose: 100.0 mg/kg/injection, schedule: Q04DX003 (ip), vehicle: saline with Tween-80 89 % of control | dose: 200.0 mg/kg/injection, schedule: Q01DX009 (ip), vehicle: saline with Tween-80 101 % of control | dose: 200.0 mg/kg/injection, schedule: Q04DX003 (ip), vehicle: saline with Tween-80 91 % of control | dose: 400.0 mg/kg/injection, schedule: Q01DX009 (ip), vehicle: saline with Tween-80 96 % of control | dose: 400.0 mg/kg/injection, schedule: Q04DX003 (ip), vehicle: saline with Tween-80 91 % of control

COc1ccc(Br)cc1CC=O
inactive: dose: 100.0 mg/kg/injection, schedule: Q01DX001 (ip), vehicle: carboxymethylcellulose (CMC) 103 % of control | dose: 177.6 mg/kg/injection, schedule: Q01DX001 (ip), vehicle: carboxymethylcellulose (CMC) 95 % of control and 105 % of control | dose: 200.0 mg/kg/injection, schedule: Q01DX001 (ip), vehicle: carboxymethylcellulose (CMC) 103 % of control | dose: 266.8 mg/kg/injection, schedule: Q01DX001 (ip), vehicle: carboxymethylcellulose (CMC) 97 % of control and 103 % of control | dose: 400.0 mg/kg/injection, schedule: Q01DX001 (ip), vehicle: carboxymethylcellulose (CMC) 95 % of control and 103 % of control | dose: 600.0 mg/kg/injection, schedule: Q01DX001 (ip), vehicle: carboxymethylcellulose (CMC) 97 % of control and 103 % of control

O=C(O)Cc1ccc2ccccc2c1
inactive: dose: 50.0 mg/kg/injection, schedule: Q01DX001 (ip), vehicle: saline 101 % of control | [10] 103 % of control | [11] 107 % of control | [12] 103 % of control

CSc1nsc(SC)c1C#N
inactive: dose: 100.0 mg/kg/injection, schedule: Q01DX009 (ip), vehicle: Klucel (hydroxypropylcellulose) (HPC) 103 % of control | dose: 200.0 mg/kg/injection, schedule: Q01DX009 (ip), vehicle: Klucel (hydroxypropylcellulose) (HPC) 97 % of control | dose: 400.0 mg/kg/injection, schedule: Q01DX009 (ip), vehicle: Klucel (hydroxypropylcellulose) (HPC) 92 % of control

Cl/C=C/CSc1ccccc1
inactive: [10] 100 % of control | [11] 103 % of control | [12] 100 % of control

Cc1cc(N(CCCl)CCCl)ccc1C=Nc1cc(Cl)ccc1-n1ccnc1C
inactive: dose: 50.0 mg/kg/injection, schedule: Q04DX003 (ip), vehicle: Klucel (hydroxypropylcellulose) (HPC) 98 % of control | [4] 98 % of control | [5] 101 % of control | [6] 90 % of control

NC(CC(=O)NCCc1ccccc1)C(=O)NCCc1ccccc1 (stereo not given)
inactive: [13] 102 % of control | [14] 97 % of control | dose: 300.0 mg/kg/injection, schedule: Q01DX001 (ip), vehicle: other 97 % of control

C[As](C)N
inactive: dose: 10.0 mg/kg/injection, schedule: Q01DX001 (ip), vehicle: saline 102 % of control | dose: 15.0 mg/kg/injection, schedule: Q01DX001 (ip), vehicle: saline 93 % of control | dose: 20.0 mg/kg/injection, schedule: Q01DX001 (ip), vehicle: saline 120 % of control | dose: 30.0 mg/kg/injection, schedule: Q01DX001 (ip), vehicle: saline 91 % of control | dose: 60.0 mg/kg/injection, schedule: Q01DX001 (ip), vehicle: saline 90 % of control

C/C=N\NC(N)=O
inactive: dose: 25.0 mg/kg/injection, schedule: Q04DX003 (ip), vehicle: saline 94 % of control | dose: 50.0 mg/kg/injection, schedule: Q04DX003 (ip), vehicle: saline 100 % of control

CC(C)c1ccc(N2CSC(=S)N(c3ccc(C(C)C)cc3)C2)cc1
inactive: dose: 100.0 mg/kg/injection, schedule: Q04DX002 (sc), vehicle: olive oil, sesame oil, peanut oil 104 % of control | dose: 200.0 mg/kg/injection, schedule: Q04DX002 (sc), vehicle: olive oil, sesame oil, peanut oil 107 % of control | dose: 400.0 mg/kg/injection, schedule: Q04DX002 (sc), vehicle: olive oil, sesame oil, peanut oil 101 % of control

COc1ccc(C(O)c2cc3ccccc3n2S(=O)(=O)c2ccccc2)cc1 (stereo not given)
inactive: [15] 95 % of control | dose: 200.0 mg/kg/injection, schedule: Q04DX002 (ip), vehicle: Klucel (hydroxypropylcellulose) (HPC) 106 % of control | dose: 400.0 mg/kg/injection, schedule: Q04DX002 (ip), vehicle: Klucel (hydroxypropylcellulose) (HPC) 98 % of control

COC1OC(CCl)C(OS(C)(=O)=O)C(OC(=O)c2ccccc2)C1OC(=O)c1ccccc1 (stereo not given)
inactive: dose: 25.0 mg/kg/injection, schedule: Q04DX002 (ip), vehicle: Klucel (hydroxypropylcellulose) (HPC) 102 % of control | dose: 50.0 mg/kg/injection, schedule: Q04DX002 (ip), vehicle: Klucel (hydroxypropylcellulose) (HPC) 97 % of control | [15] 102 % of control

CC(CNCCN)C[Si](C)(C)C (stereo not given)
inactive: dose: 4.0 mg/kg/injection, schedule: Q01DX015 (ip), vehicle: saline 101 % of control | dose: 6.25 mg/kg/injection, schedule: Q04DX003 (ip), vehicle: saline sonified 101 % of control | dose: 8.0 mg/kg/injection, schedule: Q01DX015 (ip), vehicle: saline 96 % of control | dose: 12.5 mg/kg/injection, schedule: Q04DX003 (ip), vehicle: saline sonified 97 % of control | dose: 16.0 mg/kg/injection, schedule: Q01DX015 (ip), vehicle: saline 102 % of control | dose: 25.0 mg/kg/injection, schedule: Q04DX003 (ip), vehicle: saline sonified 97 % of control | dose: 32.0 mg/kg/injection, schedule: Q01DX015 (ip), vehicle: saline 96 % of control

CC(C)CCCC(C)C1CCC2C3CC=C4CC(OC(=O)c5cc([N+](=O)[O-])c(N6CC6)c([N+](=O)[O-])c5)CCC4(C)C3CCC12C (stereo not given)
inactive: dose: 50.0 mg/kg/injection, schedule: Q01DX001 (sc), vehicle: steriod suspending solution 110 % of control | dose: 100.0 mg/kg/injection, schedule: Q01DX001 (sc), vehicle: steriod suspending solution 96 % of control | dose: 200.0 mg/kg/injection, schedule: Q01DX001 (sc), vehicle: steriod suspending solution 102 % of control | dose: 400.0 mg/kg/injection, schedule: Q01DX001 (sc), vehicle: steriod suspending solution 96 % of control

CP1CCC(O)(C(C)(C)C)CC1 (stereo not given)
inactive: [13] 101 % of control | [14] 91 % of control

Source: PubChem BioAssay AID248 (DTP/NCI, 2004)
